From US20240016814A1, “METHOD OF TREATING HYPERTENSION” (Cipla Limited, priority 2017, published 2024)
“And” between values parts separate entries of the source, which are not always exact repeats. Identical values can stand only once. Counter-ions that a name gives are not always drawn. Like-named read-outs stand apart in the source and are kept apart here.

How the values were obtained:
[1] = cited from earlier work
[2] = tested on: rats with monocrotaline induced pulmonary arterial hypertension; experiment: Monocrotaline rat model for treatment of pulmonary arterial hypertension (Example 2, dosing Day 14 till Day 28); type: in vivo, Male Sprague-Dawley rats; conditions: for % Inhibition of Fulton index: Hypertrophy (RV/LV + S) / inhibition at 30 mg/kg: positive control = 0.00; for inhibition at 30 mg/kg: Rattus norvegicus, po
Experimental: The studies were conducted for hemodynamic evaluation of desipramnine in anesthetized Sprague Dawley rats treated with monocrotaline (“MCT”) to induce pulmonary arterial hypertension. Sildenafil was used as an internal control to compare the effects of desipramine. The effects of desipramine were evaluated in rats with monocrotaline induced pulmonary arterial hypertension using sildenafil as standard care treatment. Male Sprague-Dawley rats were orally administered vehicle, desipramine (30 mg/kg, given once daily every day starting on Day 14 till Day 28), or sildenafil (100 mg/kg, given once daily every day starting on Day 14 till Day 28) (n=12 in each group). Rats received a single injection of monocrotaline (50 mg/kg, s.c.) on Study Day 1. On the twenty-eighth day following monocrotaline dosing, the rats were anesthetized with ketamine/xylazine for terminal monitoring of pulmonary and systemic arterial pressures along with heart rate.
Test Item: Vehicle (0.5% Methylcellulose+0.2% Tween 80 in deionized water. Desipramine (30 mg/kg given once daily starting on Day 14 till Day 28; Sildenafil (100 mg/kg, administered once daily starting on Day 14 till Day 28)
(§1) Route of Administration: Oral
Study Design: The study was planned and conducted according to design depicted below in Table 7
Pulmonary arterial hypertension was induced by injecting 50 mg/kg dose of monocrotaline (3 mL/Kg MCT in 50% DMSO in water) subcutaneously to all the randomized Male Sprague-Dawley rats of Groups VII, VII, IX and X (except negative control group). Negative control group (Group VI. DMSO group) received a single dose of 3 mL/kg 50% DMSO in water for injection subcutaneously. Male Sprague-Dawley rats in groups […], VII, VIII and IX and X were administered 50 mg/kg of body weight of monocrotaline in DMSO subcutaneously to induce PAH on day 1. The rats of vehicle positive control group (Group VIII) received 5 ml of vehicle every morning. The rats of desipramine group (Group IX) were orally administered desipramine (30 mg/kg given once daily starting on Day 14 till Day 28) and rats of sildenafil group (Group X) were orally administered dildenafil (100 mg/kg given once daily starting on Day 14 till Day 28). On the twenty-eighth day after monocrotaline dosing, the rats were anesthetized with ketamine/xylazine for terminal monitoring of pulmonary and systemic arterial pressures along with heart rate. It is understood that from day 1 till administration of test compounds i.e., until day 14, rates of all groups were suffering from PAH due to administration of MCT. Thus the study was conducted to evaluate the efficacy of desipramine treatment for PAH. Sildenafil was used as an internal control to compare the effects of desipramine.

[3] = tested on: rats with monocrotaline induced pulmonary arterial hypertension; experiment: Monocrotaline rat model for pulmonary arterial hypertension (Example 1, dosing Day 1 to 28); type: in vivo, Male Sprague-Dawley rats
Experimental: The studies were conducted for hemodynamic evaluation of desipramine in anesthetized sprague dawley rats treated with monocrotaline (“MCT”) to induce pulmonary arterial hypertension. Sildenafil was used as an internal control to compare the effects of desipramine.
The effects of Desipramine were evaluated in rats with monocrotaline induced pulmonary arterial hypertension using sildenafil as standard care treatment. Male Sprague-Dawley rats were orally administered vehicle, Desipramine (20 mg/kg given once daily every day for 28 days starting on Day 1), or sildenafil (100 mg/kg, administered once daily every day for 28 days starting on Day 1) (n=12 in each group). Rats received a single injection of monocrotaline (50 mg/kg, s.c.) on Study Day 1. On the twenty-eighth day following monocrotaline dosing, the rats were anesthetized with ketamine/xylazine for terminal monitoring of pulmonary and systemic arterial pressures along with heart rate.
Test Item: Vehicle (0.5% Methylcellulose+0.2% Tween 80 in deionized water. Desipramine (20 mg/kg given once daily for 28 days; Sildenafil (100 mg/kg administered once daily)
as §1
Study Design: The study was planned and conducted according to design depicted below in Table 1
Pulmonary arterial hypertension was induced by injecting Monocrotaline (3 mL/Kg MCT in 50% DMSO in water) subcutaneously at a dose of 50 mg/kg of body weight to all the randomized Male Sprague-Dawley rats of Groups II, III, IV and V (except negative control group). Negative control group (Group I. DMSO group) received a single dose of 3 mL/kg 50% DMSO in water for injection subcutaneously. The positive control group (Group III) received 5 ml of vehicle every morning. The rats of desipramine group (Group IV) were orally administered Desipramine (20 mg/kg given once daily for 28 days starting on Day 1) and rats of sildenafil group (Group V) were orally administered sildenafil (100 mg/kg given once daily for 28 days starting on Day 1) On the twenty-eighth day after monocrotaline dosing, the rats were anesthetized with ketamine/xylazine for terminal monitoring of pulmonary and systemic arterial pressures along with heart rate.

[4] = group mean, Desipramine 30 mg/Kg p.o. QD Day 14 till Day 28, Day 28
[5] = individual animals, Desipramine 30 mg/Kg p.o. QD Day 14 till Day 28, Day 28
[6] = group mean, Desipramine 20 mg/Kg p.o. QD Day 1-28, Day 28
[7] = individual animals, Desipramine 20 mg/Kg p.o. QD Day 1-28, Day 28

In the case of `CNCCCN1c2ccccc2CCc2ccccc21` [Desipramine hydrochloride], the “time at which peak plasma concentrations are attained” value ([1]; following oral administration) is given as 4 to 6 h, the “absorption from the gastrointestinal tract” value ([1]; in vivo) is given as “rapidly and almost completely absorbed” and the first-pass metabolism ([1]; in vivo) is given as “extensive”.

With `CNCCCN1c2ccccc2CCc2ccccc21` [Desipramine] the “% Inhibition of Fulton index: Hypertrophy (RV/LV + S)” value ([2]; Desipramine 30 mg/Kg p.o. QD Day 14 till Day 28) was 32.07%, the inhibition at 30 mg/kg ([2]; Desipramine 30 mg/Kg p.o. QD Day 14 till Day 28, read-out: % Inhibition of Right Ventricular Pressure (RVP)) was 53.9% and the inhibition at 30 mg/kg ([2]; Desipramine 30 mg/Kg p.o. QD Day 14 till Day 28, read-out: % Inhibition of Right Ventricular Systolic Pressure (RVSP)) was 51.6%. For the same molecule, the “systolic and mean pulmonary arterial pressures compared to the vehicle group” value ([2]; after 28 days, desipramine 30 mg/kg/day once daily, Day 14 till Day 28) was “differences”, the “activity in treatment of PAH compared with Sildenafil activity” value ([2]; desipramine 30 mg/kg vs sildenafil 100 mg/kg, Day 14 till Day 28) was “comparable” and the “Fulton index: Hypertrophy (RV/LV + S), Mean” value (shortened to “Fulton index … Mean”) [2, 4] was 0.376. For the same molecule, the “Right Ventricle weight, Mean” value [2, 4] was 0.250 gms, the “Right Ventricular Pressure (RVP), Mean” value [2, 4] was 15.796 mmHg and the “Right Ventricular Systolic Pressure (RVSP), Mean” value [2, 4] was 33.248 mmHg. For the same molecule, the “Right ventricle/Body weight, Mean” value [2, 4] was 0.0007, the “Fulton index: Hypertrophy (RV/LV + S)” value [2, 5] was 0.404 and 0.426 and 0.430 and 0.333 and 0.288 and the “Right Ventricle weight” value [2, 5] was 0.252 gms and 0.274 gms and 0.340 gms and 0.205 gms and 0.181 gms. For the same molecule, the “Right Ventricular Pressure (RVP)” value [2, 5] was 14.133 mmHg and 19.618 mmHg and 19.346 mmHg and 15.432 mmHg and 10.448 mmHg, the “Right ventricle/Body weight” value [2, 5] was 0.0008 (2×) and 0.0010 and 0.0006 and 0.0005 and the “Right Ventricular Systolic Pressure (RVSP)” value ([2]; individual animals, Desipramine 30 mg/Kg p.o. QD Day 14 till Day 28, MCT 50 mg/kg s.c., Day 28) was 30.245 mmHg and 39.927 mmHg and 38.672 mmHg and 32.210 mmHg and 25.188 mmHg. For the same molecule, the “systolic and mean pulmonary arterial pressures compared to the vehicle group” value ([3]; after 28 days, desipramine 20 mg/kg/day once daily) was “differences”, the “activity in controlling or reducing PAH compared with Sildenafil activity” value ([3]; desipramine 20 mg/kg vs sildenafil 100 mg/kg, Day 1-28) was “comparable” and the “Fulton index … Mean” value [3, 6] was 0.321. The “RV/Body wt (Right Ventricle/Body Weight), Mean” value [3, 6] was 0.0007, the “Right Ventricle (RV), Mean” value [3, 6] was 0.200 g and the “Right Ventricular Pressure (RVP), Mean” value [3, 6] was 16.241 mmHg. The “Right Ventricular Systolic Pressure (RVSP), Mean” value ([3]; group mean, Desipramine 20 mg/Kg p.o. QD Day 1-28, MCT 50 mg/kg s.c., Day 28) was 33.154 mmHg, the “Fulton index: Hypertrophy (RV/LV + S)” value [3, 7] was 0.292 and 0.474 and 0.274 and 0.244 and 0.286 and 0.278 and 0.426 and 0.352 and 0.263 and the “RV/Body wt (Right Ventricle/Body Weight)” value [3, 7] was 0.0005 (4×) and 0.0012 and 0.0006 (2×) and 0.0008 (2×). The “Right Ventricle (RV)” value [3, 7] was 0.171 g and 0.272 g and 0.168 g and 0.163 g and 0.169 g (2×) and 0.289 g and 0.251 g and 0.150 g, the “Right Ventricular Pressure (RVP)” value [3, 7] was 22.694 mmHg and 19.903 mmHg and 14.460 mmHg and 12.513 mmHg and 13.047 mmHg and 12.287 mmHg and 13.930 mmHg and 16.428 mmHg and 20.906 mmHg and the “Right Ventricular Systolic Pressure (RVSP)” value ([3]; individual animals, Desipramine 20 mg/Kg p.o. QD Day 1-28, MCT 50 mg/kg s.c., Day 28) was 44.096 mmHg and 40.737 mmHg and 27.834 mmHg and 26.777 mmHg and 25.403 mmHg and 26.483 mmHg and 31.091 mmHg and 37.179 mmHg and 38.785 mmHg.

With `CCCc1nn(C)c2c(=O)[nH]c(-c3cc(S(=O)(=O)N4CCN(C)CC4)ccc3OCC)nc12` [Sildenafil] the “% Inhibition of Fulton index: Hypertrophy (RV/LV + S)” value ([2]; Sildenafil 100 mg/Kg p.o. QD Day 14 till Day 28) was 30.70%, the “Fulton index … Mean” value ([2]; group mean, Sildenafil 100 mg/Kg p.o. QD Day 14 till Day 28, Day 28) was 0.384 and the “Fulton index: Hypertrophy (RV/LV + S)” value ([2]; individual animals, Sildenafil 100 mg/Kg p.o. QD Day 14 till Day 28, Day 28) was 0.393 and 0.306 and 0.337 and 0.389 and 0.415 and 0.464. For the same molecule, the “RV/Body wt (Right Ventricle/Body Weight), Mean” value ([3]; group mean, Sildenafil 100 mg/kg p.o. QD Day 1-28, Day 28) was 0.0006 and the “RV/Body wt (Right Ventricle/Body Weight)” value ([3]; individual animals, Sildenafil 100 mg/kg p.o. QD Day 1-28, Day 28) was 0.0009 and 0.0006 (4×) and 0.0007 (3×) and 0.0003.
